In patent US9499519B2, “Fused pyrimidine compounds and use thereof” (Medivation Technologies, Inc., priority 2012, dated 2016):

Tested on: Akt phosphorylation induced by IGF-1R
Assay: Western blot analysis of Akt phosphorylation induced by IGF-1 in HT-29 cells
Type: cell-based, Human
Settings: for Levels of phosphorylated AKT in treated cells (pAKT/actin): HT-29 cells, IGF-1; for p-AKT relative to levels with 0.1 nM compound: Table B2 lower part; for Normalized phosphorylated AKT (relative to actin) levels relative to 0.1 nM compound treatment: Table B2 upper part
Protocol: Inhibition of Akt phosphorylation induced by IGF-1R was studied by western blot analysis. Human colon carcinoma HT-29 cells were seeded at a density of 8×10^4 cells/well in a 24-well plate and grown in DME/F12 media containing 10% FBS for 24 h. The cells were then depleted of serum by incubation in DME/F12 media lacking FBS for 24 h. […] […] Lysed cells were centrifuged at 13,000 rpm for 15 min and the protein concentration soluble fraction (supernatant) of each sample was determined using a BCA protein assay (Pierce).

SMILES	Levels of phosphorylated AKT in treated cells (pAKT/actin) (0.1 nM compound)	p-AKT relative to levels with 0.1 nM compound (0.1 nM)	Normalized phosphorylated AKT (relative to actin) levels relative to 0.1 nM compound treatment (0.1 nM)	Levels of phosphorylated AKT in treated cells (pAKT/actin) (1 nM compound)	p-AKT relative to levels with 0.1 nM compound (1 nM)	Normalized phosphorylated AKT (relative to actin) levels relative to 0.1 nM compound treatment (1 nM)	Levels of phosphorylated AKT in treated cells (pAKT/actin) (10 nM compound)	p-AKT relative to levels with 0.1 nM compound (10 nM)	Normalized phosphorylated AKT (relative to actin) levels relative to 0.1 nM compound treatment (10 nM)	Levels of phosphorylated AKT in treated cells (pAKT/actin) (100 nM compound)	p-AKT relative to levels with 0.1 nM compound (100 nM)	Normalized phosphorylated AKT (relative to actin) levels relative to 0.1 nM compound treatment (100 nM)
O=C(Nc1ccc(F)nc1)C1CCCN1c1nc2c(c(Nc3cc(C4CC4)[nH]n3)n1)CCC2 (racemic) [Compound 2, 1-(4-(5-cyclopropyl-1H-pyrazol-3-ylamino)-6,7-dihydro-5H-cyclopenta[d]pyrimidin-2-yl)-N-(6-fluoropyridin-3-yl)pyrrolidine-2-carboxamide]	1.04	1.0	1.0	0.91	0.9	0.9	0.07	0.1	0.1	0.00	0.0	0.0
O=C(Nc1ccc(F)nc1)C1CCCN1c1nc2c(c(Nc3cc(C4CCCC4)[nH]n3)n1)CCC2 (racemic) [Compound 4, 1-(4-(3-cyclopentyl-1H-pyrazol-5-ylamino)-6,7-dihydro-5H-cyclopenta[d]pyrimidin-2-yl)-N-(6-fluoropyridin-3-yl)pyrrolidine-2-carboxamide]	1.92	1.0	1.0	1.59	0.8	0.8	1.01	0.5	0.5	0.06	0.0	0.0
O=C(Nc1cnccn1)C1CCCN1c1nc2c(c(Nc3cc(C4CC4)[nH]n3)n1)CCC2 (racemic) [Compound 6, 1-(4-(3-cyclopropyl-1H-pyrazol-5-ylamino)-6,7-dihydro-5H-cyclopenta[d]pyrimidin-2-yl)-N-(pyrazin-2-yl)pyrrolidine-2-carboxamide]	1.54	1.0	1.0	0.22	0.1	0.1	0.01	0.0	0.0	0.01	0.0	0.0
O=C(Nc1cncnc1)C1CCCN1c1nc2c(c(Nc3cc(C4CC4)[nH]n3)n1)CCC2 (racemic) [Compound 7, 1-(4-(3-cyclopropyl-1H-pyrazol-5-ylamino)-6,7-dihydro-5H-cyclopenta[d]pyrimidin-2-yl)-N-(pyrimidin-5-yl)pyrrolidine-2-carboxamide]	1.45	1.0	1.0	2.08	1.4	1.4	1.09	0.7	0.7	1.20	0.8	0.8
O=C(Nc1ccc(F)nc1)C1CCCCN1c1nc2c(c(Nc3cc(C4CC4)[nH]n3)n1)CCC2 (racemic) [Compound 9, 1-(4-(3-cyclopropyl-1H-pyrazol-5-ylamino)-6,7-dihydro-5H-cyclopenta[d]pyrimidin-2-yl)-N-(6-fluoropyridin-3-yl)piperidine-2-carboxamide]	0.67	1.0	1.0	0.71	1.1	1.1	0.07	0.1	0.1	0.00	0.0	0.0
O=C(Nc1cccnc1)C1CCCN1c1nc2c(c(Nc3cc(C4CC4)[nH]n3)n1)CCC2 (single isomer, unassigned) [Compound 3a, 1-(4-(5-cyclopropyl-1H-pyrazol-3-ylamino)-6,7-dihydro-5H-cyclopenta[d]pyrimidin-2-yl)-N-(pyridin-3-yl)pyrrolidine-2-carboxamide]	2.64	1.0	1.0	1.68	0.6	0.6	1.86	0.7	0.7	2.19	0.8	0.8
O=C(Nc1cccnc1)C1CCCN1c1nc2c(c(Nc3cc(C4CC4)[nH]n3)n1)CCC2 (single isomer, unassigned) [Compound 3b, 1-(4-(5-cyclopropyl-1H-pyrazol-3-ylamino)-6,7-dihydro-5H-cyclopenta[d]pyrimidin-2-yl)-N-(pyridin-3-yl)pyrrolidine-2-carboxamide]	2.25	1.0	1.0	1.70	0.8	0.8	0.57	0.3	0.3	0.02	0.0	0.0
O=C(Nc1ccc(F)nc1)C1CCCCN1c1nc2c(c(Nc3cc(C4CC4)[nH]n3)n1)CCC2 (single isomer, unassigned) [Compound 9a, 1-(4-(3-cyclopropyl-1H-pyrazol-5-ylamino)-6,7-dihydro-5H-cyclopenta[d]pyrimidin-2-yl)-N-(6-fluoropyridin-3-yl)piperidine-2-carboxamide]	1.24	1.0	1.0	1.26	1.0	1.0	0.53	0.4	0.4	0.02	0.0	0.0
O=C(Nc1ccc(F)nc1)C1CCCCN1c1nc2c(c(Nc3cc(C4CC4)[nH]n3)n1)CCC2 (single isomer, unassigned) [Compound 9b, 1-(4-(3-cyclopropyl-1H-pyrazol-5-ylamino)-6,7-dihydro-5H-cyclopenta[d]pyrimidin-2-yl)-N-(6-fluoropyridin-3-yl)piperidine-2-carboxamide]	1.46	1.0	1.0	1.55	1.1	1.1	1.18	0.8	0.8	0.78	0.5	0.5
